Measurements published in patent US11155546B2, “4,6,7-trisubstituted 1,2-dihydropyrrolo[3,4-c]pyridin/pyrimidin-3-one derivatives and uses thereof” (SHANGHAI HAIYAN PHARMACEUTICAL TECHNOLOGY CO., LTD., priority 2017, dated 2021).

What was measured:
[1] = molecular target: BTK WT (Homo sapiens (Human), UniProt Q06187); assay: Lantha screening kinase reaction, inhibition of BTK WT; format: biochemical
Method: The compound was predissolved in 100% DMSO. 10 mM drug stock solution was obtained by dissolution at room temperature and then serially diluted with 8 vol % DMSO solution to a final concentration of 10-0.005 μM. […] Among the wells, the kinase in the blank well was replaced with a reaction buffer and the kinase well (Enzyme) was not added with any drug. After shaking at 25° C. for 60 minutes in the dark, 10 μl of Detection Solution (mixture of Invitrogen PV3528 and EDTA, which was diluted with TR-FRET dilution buffer, the working concentration of EDTA was 5 mM, the working concentration of Lanthascreening Tb PY20 antibody was 0.2 nM) was added and shaken at room temperature for 30 minutes. The plates were read on a VictorX5 fluorescent plate reader (PerkinElmer) and the light absorption at an excitation wavelength of 340 nm and emission wavelengths of 500 nm and 520 nm was measured.
The calculation method for the inhibition ratio (referring to the specification of Invitrogen, PV3363) was as follows: Emission ratio (ER):Coumarin Emission (520 nm)/Fluorescein Emission (500 nm) 1. The inhibition ratio (IR):(ERkinase−ERtest compound)/(ERkinase−ERblank)×100%. 2.
The half-inhibitory concentration IC50 was calculated by fitting with XLFIT5.0 software (IDBS, UK).

[2] = molecular target: wild-type EGFR kinase (Homo sapiens (Human), UniProt P00533); assay: Wild type EGFR kinase inhibition test (z-lyte); format: biochemical; settings: 10 μM ATP; read-out: EGFR WT IC50
Sequence of wild-type EGFR kinase (P00533 25-1210): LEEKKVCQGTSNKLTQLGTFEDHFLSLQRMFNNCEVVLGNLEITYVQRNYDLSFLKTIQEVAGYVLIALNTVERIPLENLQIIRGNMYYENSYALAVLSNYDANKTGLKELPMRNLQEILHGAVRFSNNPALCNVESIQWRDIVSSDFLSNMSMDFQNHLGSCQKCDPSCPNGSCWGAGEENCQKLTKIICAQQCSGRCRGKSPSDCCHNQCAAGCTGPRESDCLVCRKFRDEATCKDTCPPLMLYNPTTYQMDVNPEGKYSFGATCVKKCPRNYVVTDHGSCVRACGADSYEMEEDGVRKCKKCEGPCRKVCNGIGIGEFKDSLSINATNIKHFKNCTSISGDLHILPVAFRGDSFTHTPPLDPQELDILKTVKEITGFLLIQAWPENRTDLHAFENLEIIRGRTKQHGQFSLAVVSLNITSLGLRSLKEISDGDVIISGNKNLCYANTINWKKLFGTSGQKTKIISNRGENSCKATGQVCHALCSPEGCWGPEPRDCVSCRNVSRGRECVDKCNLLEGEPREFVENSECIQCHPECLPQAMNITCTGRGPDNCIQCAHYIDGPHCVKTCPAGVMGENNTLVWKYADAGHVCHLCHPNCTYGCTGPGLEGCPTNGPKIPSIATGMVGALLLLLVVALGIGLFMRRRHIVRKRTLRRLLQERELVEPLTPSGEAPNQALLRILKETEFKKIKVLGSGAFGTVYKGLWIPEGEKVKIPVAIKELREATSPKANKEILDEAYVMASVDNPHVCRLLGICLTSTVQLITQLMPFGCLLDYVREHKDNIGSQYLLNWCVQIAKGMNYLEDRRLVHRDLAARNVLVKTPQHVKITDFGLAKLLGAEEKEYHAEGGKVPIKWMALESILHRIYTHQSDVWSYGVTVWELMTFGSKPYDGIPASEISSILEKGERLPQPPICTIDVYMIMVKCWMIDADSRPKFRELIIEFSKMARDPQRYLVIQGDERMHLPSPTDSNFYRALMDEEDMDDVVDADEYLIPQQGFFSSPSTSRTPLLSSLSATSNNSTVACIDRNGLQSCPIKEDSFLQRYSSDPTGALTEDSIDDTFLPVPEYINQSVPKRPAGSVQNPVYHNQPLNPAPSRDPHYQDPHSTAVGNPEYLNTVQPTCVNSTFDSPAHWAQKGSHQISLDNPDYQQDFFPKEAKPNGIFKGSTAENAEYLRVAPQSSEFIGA
Source text: All the following reagents used in z-lyte test are commercially available from Invitrogen.
The calculation method for the inhibition ratio (referring to the specification of Invitrogen, PV3363) was as follows: ER=Coumarin Emission(450 nm)/Fluorescein Emission(520 nm) 1. Phosphorylation ratio=(1−((ER×C3520nm−C3450nm)/((C1450nm−C3450nm)+ER×(C3520nm−C1520nm))))×100% 2. Inhibition ratio (IR)=(1−phosphorylation ratio of the test compound)/(phosphorylation ratio of C2))×100% 3.
The half-inhibitory concentration IC50 was calculated by fitting with XLFIT 5.0 software (IDBS, UK).

[3] = molecular target: βBTK Y223 (Homo sapiens (Human), UniProt Q06187); assay: Intracellular βBTK Y223 phosphorylation HTRF in Ramos cells; format: cell-based
Sequence of βBTK Y223 (Q06187 whole entry): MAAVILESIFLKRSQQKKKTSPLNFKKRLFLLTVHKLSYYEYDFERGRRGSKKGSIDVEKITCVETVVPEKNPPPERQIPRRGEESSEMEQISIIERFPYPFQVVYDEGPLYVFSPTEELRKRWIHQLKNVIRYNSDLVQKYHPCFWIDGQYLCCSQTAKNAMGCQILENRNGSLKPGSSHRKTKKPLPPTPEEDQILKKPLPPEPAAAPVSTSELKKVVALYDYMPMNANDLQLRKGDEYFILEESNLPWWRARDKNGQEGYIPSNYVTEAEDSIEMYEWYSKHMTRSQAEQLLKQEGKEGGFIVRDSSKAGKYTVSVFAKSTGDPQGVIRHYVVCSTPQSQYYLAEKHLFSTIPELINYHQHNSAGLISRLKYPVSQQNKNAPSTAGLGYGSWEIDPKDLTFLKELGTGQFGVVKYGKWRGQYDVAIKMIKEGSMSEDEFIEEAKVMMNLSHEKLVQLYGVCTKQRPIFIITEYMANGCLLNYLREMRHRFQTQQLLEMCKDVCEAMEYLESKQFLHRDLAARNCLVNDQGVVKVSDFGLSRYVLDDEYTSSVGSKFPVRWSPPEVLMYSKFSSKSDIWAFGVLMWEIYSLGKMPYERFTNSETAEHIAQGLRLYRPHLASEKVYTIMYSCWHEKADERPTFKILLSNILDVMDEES
Method: The compound was predissolved in 100% DMSO. […] 20 μl of lysate (4× lysate: blocked mother liquor is 25:1) was added to each well and incubated for 30 minutes at 25° C. on a shaker. It was shaken on an oscillator at 800 rpm for 1 minute. […] The half-inhibitory concentration IC50 was calculated by fitting with XLFIT 5.0 software (IDBS, UK).

[4] = in vivo
Method: Test Animals: ICR mice, weight 28-30 g, male, totally 12, purchased from SLAC Laboratory Animal Co., Ltd. Mice were fasting one night before administration and freely fed 4 hours after administration.
Administration and Blood collection: 6 mice were administered intragastrically (PO) in a administered dosage of 30 mg/kg and a administered volume of 10 mL/kg. One administration route was subjected with 6 mice, blood samples of three mice were collected at one time point, and blood samples of another three mice were collected at alternate time point alternately. Blood was collected at 8 time points of 0.083, 0.25, 0.5, 1, 2, 4, 8, 24 h after administration respectively.
Animals were manually controlled at the time of collection and approximately 80 μL of blood was collected from the mice fundus venous plexus into a tube containing K2EDTA. The collected blood sample was put on wet ice, centrifuged within 15 min (8000 rpm, 4 min at 4° C.), and then the plasma sample was taken and stored at minus 20° C. till analysis. The compounds were prepared on the day of the experiment.
Solvent excipient information: DMSO (brand: Sigma, batch number: SHBD2446V); 2-hydroxypropyl-3-cyclodextrin (brand: Sigma, batch number: BCBN8227V), acetic acid (brand: Sinopharm Group, batch number: 20150616), sodium acetate (Brand: GENERAL-REAGENT, batch number: P1246037).
Preparation of a 3 mg/mL PO dosing solution: the solvent was a solution of 5% DMSO and 95% PH4.5 (sodium acetate-acetate) in 20% of 2-hydroxypropyl-β-cyclodextrin.
Analytical method: Plasma samples were analyzed by liquid chromatography-tandem mass spectrometry (Instrument type: Triple Quad™ 4000).
Preparation of the standard curve: preparing a standard curve of the test compound 1n the plasma matrix of ICR mice with a linear range of 1.00-3000 ng/mL, and preparing control samples at low, medium and high concentrations of 3 ng/mL, 500 ng/mL, and 2400 ng/mL respectively.
Treatment of biological samples: the frozen plasma samples were thawed on ice, and after the samples were thawed, they were vortexed on a vortex for 5 min. 20 μL of plasma sample was added to a 96-well plate, and 200 μL of acetonitrile (brand: Merck, Lot: 1854029643) containing an internal standard dexamethasone (Brand: NIFDC, Lot: 1N2V-DPGY, 2000 ng/mL) was added to precipitate protein, which were vortexed for 5 min, and then centrifuged at 3700 rpm and 4° C. for 15 min. The supernatant was extracted and twice centrifuged under the same conditions, and finally 2 μL of the supernatant solution was analyzed by LC-MS/MS.

[5] = male, ICR, mouse, in vivo, po, 30 mg/kg

Sequence of BTK WT (Q06187 whole entry): as above

Row | SMILES | IC50 [1] | IC50 [2] | IC50 [3] | AUC [4, 5] | Cmax [4, 5] | Tmax [4, 5] | bioavailability [4, 5] | half-life [4, 5] | Area under curve AUC ([4]; mouse, in vivo, po, 30 mg/kg) | Maximum blood concentration Cmax ([4]; mouse, in vivo, po, 30 mg/kg) | Oral relative bioavailability F (%) ([4]; mouse, in vivo, po, 30 mg/kg) | Tmax ([4]; mouse, in vivo, po, 30 mg/kg) | half-time T1/2 ([4]; mouse, in vivo, po, 30 mg/kg) | efficacy of the compound in mice compared with the compound without substituent on the nitrogen atom attached to the piperidine ring ([4]; ICR mice, PO 30 mg/kg, pairs G-7/G-60, G-14/G-71, G-23/G-72) | efficacy of the compound in mice compared with the compound without substituent on the nitrogen atom attached to the piperidine ring ([4]; mouse, in vivo, po, 30 mg/kg)
1 | C=CC(=O)N1CCCC(Nc2nc(-c3cnn(C)c3)c3c(c2F)CNC3=O)C1 (stereo not drawn) [Compound G-7, 6-(1-acryloylpiperidin-3-ylamino)-7-fluoro-4-(1-methyl-1H-pyrazole-4-yl)-1H-pyrrolo[3,4-c]pyridine-3(2H)-one] | 0.035 µM | 3.95 µM | 0.011 µM | 1330 ng·h/mL | 1830 ng/mL | 4.8 min | 25.4% | 93 min | – | – | – | – | – | – | –
2 | C=CC(=O)N1CCCC(Nc2nc(Nc3ccc(N4CCOCC4)cc3)c3c(c2F)CNC3=O)C1 (stereo not drawn) [Compound G-14] | 0.003 µM | 4.13 µM | 0.003 µM | – | – | – | – | – | 1072 ng·h/mL | 1240.0 ng/mL | 13.7% | 4.8 min | 148 min | – | –
3 | C=CC(=O)N1CC(Nc2nc(-c3cnn(C)c3)c3c(c2F)CNC3=O)CCC1C (stereo not drawn) [Compound G-26, 6-(1-acryloyl-6-methylpiperidin-3-ylamino)-7-fluoro-4-(1-methyl-1H-pyrazole-4-yl)-1H-pyrrolo[3,4-c]pyridine-3(2H)-one] | 0.027 µM | 6.69 µM | 0.047 µM | 1290 ng·h/mL | 2400 ng/mL | 4.8 min | 13.1% | 127 min | – | – | – | – | – | – | –
4 | C=CC(=O)N1CCCC(Nc2nc(Nc3ccc(N4CCOCC4)cc3F)c3c(c2F)CNC3=O)C1 (stereo not drawn) [Compound G-31] | 0.007 µM | 7.93 µM | 0.011 µM | – | – | – | – | – | 1839 ng·h/mL | 1237.0 ng/mL | 28.2% | 15 min | 103 min | – | –
5 | C=CC(=O)N1CCCC(Nc2nc(Nc3ccc(N4CCOCC4)c(Cl)c3)c3c(c2F)CNC3=O)C1 (stereo not drawn) [Compound G-39] | 0.002 µM | 6.31 µM | 0.003 µM | – | – | – | – | – | 1182 ng·h/mL | 1501.0 ng/mL | 15.2% | 4.8 min | 138 min | – | –
6 | C=CC(=O)N1CCCC(N(C)c2nc(-c3cnn(C)c3)c3c(c2F)CNC3=O)C1 (stereo not drawn) [Compound G-60, 6-((1-acryloylpiperidin-3-yl)(methyl)amino)-7-fluoro-4-(1-methyl-1H-pyrazole-4-yl)-1H-pyrrolo[3.4-c]pyridine-3 (2H)-one] | 0.009 µM | > 10 µM | 0.024 µM | – | – | – | – | – | 109 ng·h/mL | 351.7 ng/mL | 3% | 4.8 min | 634.2 min | significantly lower | –
7 | C=CC(=O)N1CCCC(N(C)c2nc(-c3cnn(C(F)F)c3)c3c(c2F)CNC3=O)C1 (stereo not drawn) [Compound G-63, 6-((1-acryloylpiperidin-3-yl)(methyl)amino)-4-(1-(difluoromethyl)-1H-pyrazole-4-yl)-7-fluoro-1H-pyrrolo[3,4-c]pyridine-3(2H)-one] | 0.025 µM | > 10 µM | 0.05 µM | – | – | – | – | – | – | – | – | – | – | – | –
8 | C=CC(=O)N1CCCC(N(C)c2nc(Nc3ccc(N4CCOCC4)cc3)c3c(c2F)CNC3=O)C1 (stereo not drawn) [Compound G-71, 6-((1-acryloylpiperidin-3-yl)(methyl)amino)-7-fluoro-4-(4-morpholin)-1H-pyrrolo[3,4-c]pyridine-3 (2H)-one] | 0.005 µM | 1.59 µM | 0.003 µM | 606 ng·h/mL | 533 ng/mL | 4.8 min | 7.4% | 679 min | – | – | – | – | – | – | significantly lower
9 | C=CC(=O)N1CCCC(N(C)c2nc(Nc3cc(C)ns3)c3c(c2F)CNC3=O)C1 (stereo not drawn) [Compound G-72, 6-((1-acryloylpiperidin-3-yl)(methyl)amino)-7-fluoro-4-(3-methylisothiazole-5-ylamino)-1H-pyrrolo[3,4-c]pyridine-3(2H)-one] | 0.005 µM | 1.66 µM | 0.004 µM | 107 ng·h/mL | 10.7 ng/mL | 15 min | – | 679 min | – | – | – | – | – | – | significantly lower
10 | C=CC(=O)N1CC2CN(c3nc(Nc4cnn(C)c4)c4c(c3F)CNC4=O)CC2C1 (stereo not drawn) [Compound G-76] | 0.0008 µM | 1.36 µM | 0.002 µM | – | – | – | – | – | – | – | – | – | – | – | –
11 | C=CC(=O)NC1CN(c2nc(Nc3cnn(C)c3)c3c(c2F)CNC3=O)C1 [Compound G-85, N-(1-(7-fluoro-4-(1-methyl-1H-pyrazol-4-ylamino)-3-oxo-2,3-dihydro-1H-pyrrolo[3,4-c]pyridin-6-yl)azetidin-3-yl)acrylamide] | 0.032 µM | 1.12 µM | 0.043 µM | – | – | – | – | – | – | – | – | – | – | – | –
12 | C=CC(=O)NC1CN(c2nc(Nc3ccc(N4CCOCC4)cc3)c3c(c2F)CNC3=O)CC1F (stereo not drawn) [Compound G-86, N-(4-fluoro-1-(7-fluoro-4-(4-morpholin)-3-oxo-2,3-dihydro-1H-pyrrolo[3,4-c]pyridin-6-yl)pyrrolidinepyridine-3-yl)acrylamide] | 0.001 µM | 1.19 µM | 0.005 µM | – | – | – | – | – | – | – | – | – | – | – | –
13 | C=CC(=O)N(C)C1CCN(c2nc(Nc3cnn(C)c3)c3c(c2F)CNC3=O)C1 (stereo not drawn) [Compound G-88, N-(1-(7-fluoro-4-(1-methyl-1H-pyrazol-4-ylamino)-3-oxo-2,3-dihydro-1H-pyrrolo[3,4-c]pyridin-6-yl)pyrrolidine-3-yl)-N-methyl acrylamide] | 0.017 µM | 1.05 µM | 0.056 µM | – | – | – | – | – | – | – | – | – | – | – | –
